A word on the MIC: it is the lowest concentration that inhibits growth of the organism.

In one test the test system is Aspergillus fumigatus. As to the kind of experiment: In vitro MIC susceptibility testing. The class given is cell-based. As for the experimental part:
(§1) In vitro MIC susceptibility testing. […]. Amphotericin B was used as a positive control and the MICs range were 0.25-1.5 μg/mL. Six untreated media controls were included on each plate. The plates were incubated at 33° C. for 72 h. The MICs were determined as the lowest concentration that inhibited visible growth. The MICs were read at 24, 48, and 72 hours, respectively. […]

In another test the test system is C. glabrata. As to the kind of experiment: In vitro MIC susceptibility testing, broth microdilution. As to conditions: Nakaseomyces glabratus. The class given is cell-based, Candida glabrata. As for the experimental part:
as §1
Background: Dilution methods test growth across graded concentrations, often in twofold steps.

For the next test, the system named is C. auris. The description is as above. In kind it is cell-based, Candida auris. Further details: unit: ug/mL. As for the experimental part:
as §1

Another test deals with C. albicans. The test is described as above. In kind it is cell-based, Candida albicans. How it is done:
as §1

The test system of test [1] is five Candida isolates, C. albicans K-1, C. tropicalis 98-234, C. auris B 11211, C. glabrata 4720, C. albicans SN 250. As to the kind of experiment: In vitro MIC susceptibility testing, positive control over the Candida isolates. The class given is cell-based. To be noted: RPMI medium. How it is done:
as §1

The test system of the next test is C. tropicalis. As to the kind of experiment: In vitro MIC susceptibility testing, broth microdilution. The class given is cell-based. As to conditions: Candida tropicalis, strain 98-234; read-out: MIC. As for the experimental part: In vitro MIC susceptibility testing. […] The plates were incubated at 33° C. for 72 h. The MICs were determined as the lowest concentration that inhibited visible growth. The MICs were read at 24, 48, and 72 hours, respectively.

Another test relates to A. fumigatus F11628. To be noted: same Cyp51 mutant A. fumigatus strain, comparison; cited from earlier work.
Setting [2] is: positive controls, A. fumigatus F11628, read-out: MIC.
Setting [3] is: Candidozyma auris, strain B11104.
Where [4] appears, read: Candidozyma auris, strain B11203.
The mark [5] stands for this setting: Candidozyma auris, strain B11219.
Setting [6] is: Candidozyma auris, strain B11221.
[7] abbreviates: Candidozyma auris, strain B11211, resistant to amphotericin B, fluconazole, micafungin, read-out: MIC.
The mark [8] stands for this setting: Candidozyma auris, strain B11220, read-out: MIC.
The mark [9] stands for this setting: Candidozyma auris, strain B11785, read-out: MIC.
[10] abbreviates: Candidozyma auris, strain B11799, read-out: MIC.
[11] abbreviates: Candidozyma auris, strain B11801, read-out: MIC.
Setting [12] is: Candidozyma auris, strain B11804, read-out: MIC.
[13] abbreviates: Candida albicans, strain 98-17, read-out: MIC.
The mark [14] stands for this setting: Candida albicans, strain 98-210, read-out: MIC.
Setting [15] is: Candida albicans, strain 580, read-out: MIC.
[16] abbreviates: Candida albicans, strain K1 (K-1), read-out: MIC.

≈ marks a conversion by molar mass, not a printed value. Where two headings read alike, the source gives them in different places. *1 amine or outer side, *2 acyl side, *3 side chain or, on linkers, in order; H or OH if unused. Where a SMILES comes first, the peptide text is derived from it. Bridges are numbered along the chain shown (N, C = ends). [ ]: non-standard residue; d: D form. The star is where a group is joined. hTyr(3S-OH,4S-OH,3'-OSO3H) = N[C@H](C(=O)O)[C@H](O)[C@@H](O)c1ccc(O)c(OS(=O)(=O)O)c1; Orn(4R-OH,5R-OH) = O=C([C@H](C[C@@H](O)[C@@H](O)N[*:3])N[*:1])[*:2]; Pro(3S-OH,4S-Me) = C[C@H]1CN[C@H](C(=O)O)[C@H]1O; X1 = CCCCCOc1ccc(-c2cc(-c3ccc(C(=O)*)cc3)no2)cc1; Gln(3R-OH) = NC(=O)C[C@@H](O)[C@H](N)C(=O)O; Hyp = O=C(O)[C@@H]1C[C@@H](O)CN1 Some results are limits rather than exact numbers.

On to `C[C@@H](c1nc(-c2ccc(C#N)cc2)cs1)[C@](O)(Cn1cncn1)c1cc(F)ccc1F` [Isavuconazole], for which, in the test with Aspergillus fumigatus (setting [2]), the minimum inhibitory concentration (MIC) was determined as 8 µg/mL (≈ 18.3 µM).
For the compound `CCCCCOc1ccc(-c2cc(-c3ccc(C(=O)N[C@H]4C[C@@H](O)[C@@H](O)NC(=O)[C@@H]5[C@@H](O)[C@@H](C)CN5C(=O)[C@H]([C@H](O)CC(N)=O)NC(=O)[C@H]([C@H](O)[C@@H](O)c5ccc(O)c(OS(=O)(=O)O)c5)NC(=O)[C@@H]5C[C@@H](O)CN5C(=O)[C@H]([C@@H](C)O)NC4=O)cc3)no2)cc1` [Micafungin, micafungin] (X1-[Orn(4R-OH,5R-OH)]T[Hyp][hTyr(3S-OH,4S-OH,3'-OSO3H)][Gln(3R-OH)][Pro(3S-OH,4S-Me)]; lactam 1-C), the MIC was 0.016 µg/mL (≈ 0.0126 µM) in the test on C. glabrata (strain 513); 8 µg/mL (≈ 6.3 µM) with C. glabrata (strain 729, Fks2_HS1_S663P); 4 µg/mL (≈ 3.15 µM) in the test on C. glabrata (strain 4720, Fks2_HS1_S645P, echinocandin resistant); 0.016 µg/mL (≈ 0.0126 µM) against C. glabrata (strain 5592); 2 µg/mL (≈ 1.57 µM) in the test on C. glabrata (strain 14378, Fks1_HS1_S629P); 0.25 µg/mL (≈ 0.197 µM) in the test with C. auris (setting [3]). For the same compound, the MIC was found to be 0.25 µg/mL (≈ 0.197 µM) against C. auris (setting [4]); 4 µg/mL (≈ 3.15 µM) against C. auris (Candidozyma auris, strain B11211, resistant to amphotericin B, fluconazole, micafungin); 4 µg/mL (≈ 3.15 µM) in the test on C. auris (setting [5]); 0.12 µg/mL (≈ 0.0945 µM) in the test with C. auris (Candidozyma auris, strain B11220); 1 µg/mL (≈ 0.787 µM) against C. auris (setting [6]); 0.5 µg/mL (≈ 0.394 µM) against C. auris (Candidozyma auris, strain B11785). The MIC stood at 2 µg/mL (≈ 1.57 µM) with C. auris (Candidozyma auris, strain B11799); 1 µg/mL (≈ 0.787 µM) in the test on C. auris (Candidozyma auris, strain B11801); 0.5 µg/mL (≈ 0.394 µM) in the test on C. auris (Candidozyma auris, strain B11804); 0.06 µg/mL (≈ 0.0472 µM) against C. albicans (Candida albicans, strain 98-17); 0.03 µg/mL (≈ 0.0236 µM) against C. albicans (Candida albicans, strain 98-210); 0.016 µg/mL (≈ 0.0126 µM) against C. albicans (Candida albicans, strain 580). This compound also yielded an MIC in the test on C. albicans (Candida albicans, strain K1 (K-1)) of 0.03 µg/mL (≈ 0.0236 µM).
Regarding `C[C@@H]1[C@H](O)[C@@H](C)/C=C/C=C/C=C/C=C/C=C/C=C/C=C/[C@H](O[C@@H]2O[C@H](C)[C@@H](O)[C@H](N)[C@@H]2O)C[C@@H]2O[C@](O)(C[C@@H](O)C[C@@H](O)[C@H](O)CC[C@@H](O)C[C@@H](O)CC(=O)O[C@H]1C)C[C@H](O)[C@H]2C(=O)O` [Amphotericin B], the minimum inhibitory concentration (MIC) against C. auris (strain B11104) was 1 µg/mL (≈ 1.08 µM); with C. auris (strain B11203), 4 µg/mL (≈ 4.33 µM); in the test on C. auris (strain B11211, resistant to amphotericin B, fluconazole, micafungin) it was 1.5 µg/mL (≈ 1.62 µM); against C. auris (strain B11219) it was 3 µg/mL (≈ 3.25 µM); with C. auris (strain B11220) it was 0.38 µg/mL (≈ 0.411 µM); in the test with C. auris (strain B11221), 0.38 µg/mL (≈ 0.411 µM). Also, the MIC against C. auris (strain B11785) was found to be 1.5 µg/mL (≈ 1.62 µM); in the test with C. auris (strain B11799) it was 0.5 µg/mL (≈ 0.541 µM); in the test with C. auris (strain B11801), 6 µg/mL (≈ 6.49 µM); with C. auris (strain B11804), 0.5 µg/mL (≈ 0.541 µM); in the test with C. albicans (strain 98-17), 0.25 µg/mL (≈ 0.271 µM); against C. albicans (strain K1 (K-1)), 0.25 µg/mL (≈ 0.271 µM). In test [1], this compound had an MICs range of 0.25 to 1.5 µg/mL.
In the case of `OC(Cn1cncn1)(Cn1cncn1)c1ccc(F)cc1F` [Fluconzole, fluconazole], the MIC in the test with C. tropicalis is 32 µg/mL (≈ 104 µM); with C. auris (setting [3]), greater than 256 µg/mL; in the test on C. auris (setting [4]), 256 µg/mL (≈ 836 µM); with C. auris (setting [7]), greater than 256 µg/mL; against C. auris (setting [5]), greater than 256 µg/mL; in the test with C. auris (setting [8]), 4 µg/mL (≈ 13.1 µM). Besides, the MIC worked out at 128 µg/mL (≈ 418 µM) in the test with C. auris (setting [6]); 8 µg/mL (≈ 26.1 µM) in the test with C. auris (setting [9]); 16 µg/mL (≈ 52.2 µM) in the test with C. auris (setting [10]); 16 µg/mL (≈ 52.2 µM) with C. auris (setting [11]); 2 µg/mL (≈ 6.53 µM) in the test with C. auris (setting [12]); 16 µg/mL (≈ 52.2 µM) with C. albicans (setting [13]). Moreover, the MIC was 16 µg/mL (≈ 52.2 µM) in the test on C. albicans (setting [14]), 4 µg/mL (≈ 13.1 µM) in the test on C. albicans (setting [15]) and 0.5 µg/mL (≈ 1.63 µM) in the test with C. albicans (setting [16]).
In the case of `CC[C@@H]([C@H](C)O)n1ncn(-c2ccc(N3CCN(c4ccc(OC[C@@H]5CO[C@@](Cn6cncn6)(c6ccc(F)cc6F)C5)cc4)CC3)cc2)c1=O` [Posaconazole, posaconazole], the MIC with C. auris (Candidozyma auris, strain B11104, read-out: MIC) came to 0.5 µg/mL (≈ 0.713 µM); with C. auris (Candidozyma auris, strain B11203, read-out: MIC) it was 0.12 µg/mL (≈ 0.171 µM); in the test with C. auris (setting [7]) it was 0.5 µg/mL (≈ 0.713 µM); in the test on C. auris (Candidozyma auris, strain B11219, read-out: MIC), 0.5 µg/mL (≈ 0.713 µM); in the test on C. auris (setting [8]), 0.06 µg/mL (≈ 0.0856 µM); in the test on C. auris (Candidozyma auris, strain B11221, read-out: MIC), 0.5 µg/mL (≈ 0.713 µM). Moreover, the minimal inhibitory concentration (MIC) turned out to be 0.016 µg/mL (≈ 0.0228 µM) with C. auris (setting [9]); 0.06 µg/mL (≈ 0.0856 µM) in the test on C. auris (setting [10]); 0.12 µg/mL (≈ 0.171 µM) with C. auris (setting [11]); 0.03 µg/mL (≈ 0.0428 µM) with C. auris (setting [12]); 0.12 µg/mL (≈ 0.171 µM) in the test with C. albicans (setting [13]); 0.12 µg/mL (≈ 0.171 µM) with C. albicans (setting [14]). Besides, the MIC in the test on C. albicans (setting [15]) was determined as 0.06 µg/mL (≈ 0.0856 µM); in the test on C. albicans (setting [16]) it was 0.03 µg/mL (≈ 0.0428 µM); in the test with Aspergillus fumigatus (setting [2]), 8 µg/mL (≈ 11.4 µM); with Aspergillus fumigatus (strain 293, read-out: MIC) it was 0.5 µg/mL (≈ 0.713 µM); in the test on Aspergillus fumigatus (strain F14532, Cyp51 M220T), 1 µg/mL (≈ 1.43 µM); with Aspergillus fumigatus (strain F16216, Cyp51 L98H + TR) it was 2 µg/mL. Further, the “dose required to achieve 1-log kill” value in the test with A. fumigatus F11628 is 150 mg/kg/24 h.

The values are drawn from patent US12240859B2, “Turbinmicin compounds, compositions and uses thereof” (Wisconsin Alumni Research Foundation, priority 2019, dated 2025).
